{"source": "patent US10335382B2", "about": "“Use of hydrogen sulfide synthesis inhibitors for cancer therapy” (THE BOARD OF REGENTS OF THE UNIVERSITY OF TEXAS SYSTEM, priority 2013, dated 2019)", "key": {"HCT116 colon cancer cell": {"test_system": "HCT116 colon cancer cell", "details": "cell-based assays (Szabo et al. 2013); cited from earlier work"}, "HCT116 tumor xenografts": {"test_system": "HCT116 tumor xenografts", "assay": "HCT116 tumor xenograft in nude mice", "format": "in vivo, Nu/nu Balb/C female mice", "details": "AOAA 9 mg/kg/day s.c.", "method": "(§1) Nu/nu Balb/C female mice (8-10 weeks) were injected subcutaneously in the right and left dorsum (10^6 cells/side with HCT-116 cells). One week later, the mice were randomized and subcutaneous injections of phosphate buffered saline (PBS) or AOAA (9 mg/kg/day) were performed 6 days/week. Tumor diameters were measured transcutaneously using calipers and tumor volumes were calculated using the formula V=(π/6)hd^2. T-test comparisons of the tumor volumes and final weights at harvest were performed. Xenotrials with patient-derived xenografts (PTX) were performed on nu/nu mice implanted subcutaneously with a piece of Passage 2 tumor measuring 2-5 mm^3 each. When a small palpable tumor was evident at 7-10 days, the mice with tumor take were randomized and subjected to subcutaneous injection of vehicle or AOAA (9 mg/kg/day) 6 days/week. Specimens were fixed with 10% formalin and embedded in paraffin. 5 μm sections were stained with hematoxylin and eosin. Each in vivo experiment was repeated at least twice.\nTissue preparation, immunostaining of CD31, and evaluation of microvessel density with the Chakley reticle was performed as described (Chao et al. (1996) Cancer Res. 56:4811-19).\nNu/nu Balb/c female mice (8-10 weeks) were injected subcutaneously in the right and left dorsum (10^6 cells/side with HCT116 cells). One week later, the mice were randomized and subcutaneous injection of phosphate buffered saline (PBS control) or YD2-51 (0.1, 0.5 or 1 mg/kg) was performed 6 days/week. Tumor volumes and final weights at harvest (post-tumor injection Day 28) were performed and tumor weight/animal weight ratios calculated."}, "HCT116 cells": {"test_system": "HCT116 cells", "assay": "HCT116 cell migration and invasion (Transwell)", "format": "cell-based, human", "details": "AOAA 1 mM, fibroblast-conditioned media", "method": "FIG. 3. […] (A, B) The lentiviral shRNA vectors targeting CBS (shCBS) and CSE (shCSE) were transfected into HCT116 cells. A non-targeting sequence was used as control (shNT). […] Following CBS and CSE silencing, cells were seeded at the density of 3000 cells/well in xCELLigence plates and proliferation was monitored for 36 hours. […] The NCM356 cells were infected overnight with a CBS expressing adenovirus (Ad-CBS, 10 multiplicity of infection (MOI)) or its control, a green fluorescent protein (Ad-GFP). The culture media was then replaced and cells were seeded in XCelligence plates at 3000 cells/well. Cell proliferation was then measured real-time over 36 hours. […] (H, I) The effect of AOAA and NaHS was also tested on HCT116 cell migration (H) and invasion (I). Cells were pretreated either with vehicle or AOAA (1 mM) and seeded in serum-free DMEM (0.1% albumin) in the upper chamber of a trans-well insert uncoated (migration assay) or coated with growth factor reduced matrigel (invasion assay). Migration and invasion were stimulated by fibroblast-conditioned media in the lower chamber for 6 and 24 hours, respectively. […] (J) In a co-culture of human endothelial cells (EAhy926) and colon cancer cells (HCT116), HCT 116 cells were seeded in the lower chamber of a trans-well insert and cultured to confluence. Endothelial cells were then seeded into the upper chamber in serum-free DMEM and allowed to migrate for 4 hours at 37° C. […] Western blots are representative of at least three independent experiments; proliferation/migration/invasion assays and H2S measurements represent mean±SEM of n=3 determinations.\nCellular migration and invasion assays were performed as described (Chao et al. (1996) Cancer Res. 56:4811-19). Briefly, 10^5 cells were suspended in serum-free media containing 0.1% BSA and then added to 6.5 mm Transwell chambers ([…]) uncoated (migration assay) or coated with a thin layer (45 μl) of growth factor reduced matrigel (cell invasion assay). Cells were allowed to migrate toward the bottom chamber containing fibroblast (NIH-3T3 cells) conditioned media at 37° C. for 6 or 24 h for cell migration and invasion, respectively. Migrated and invaded cells were then fixed in Carson's fixative, stained in 0.33% toluidine blue and quantified by visual counting. For the HCT116-EAhy926 co-culture experiment, the cancer cell line was grown to confluence in the bottom wells of the transwell chambers and then endothelial cell migration was assessed (Coletta et al. (2012) Proc Natl Acad Sci USA. 109:9161-66)."}, "[1]": {"test_system": "peritumor microvessel blood flow", "assay": "Tumor microvascular blood flow (laser Doppler)", "format": "in vivo, mice", "details": "intratumoral injection; AOAA 9 mg/kg, L-cysteine 1 mg/kg", "method": "FIG. 6. L-Cysteine increases, while AOAA reduces microvessel blood flow in tumor bearing mice. Tumor bearing mice were anesthetized by i.p. injection of ketamine-xylazine and a laser Doppler (PeriFlux system 5000) was placed on top of the tumor for microvessel blood flow measurements. After a stabilization period, L-Cys or AOAA were injected subcutaneously in proximity of the tumor. […] Data represent mean±SEM of n=6 determinations.\nSkin microvascular blood flow was measured using a PeriFlux 5000 laser-Doppler flowmeter. Mice bearing PTX were anesthetized by ketamine-xylazine (i.p.). The laser-Doppler probe was placed on top of the tumors and a stable basal signal was recorded. Changes in the subcutaneous microcirculatory perfusion were detected following intratumoral injections of either L-cysteine (1 mg/kg) or AOAA (9 mg/kg)."}, "[2]": {"test_system": "patient-derived colon cancer xenografts", "assay": "Patient-derived tumor xenograft (PDTX) growth", "format": "in vivo, nu/nu mice", "details": "AOAA 9 mg/kg/day s.c.", "method": "as §1"}}, "note": "“Also recorded” adds a separate entry of the source.", "data": [{"smiles": "NOCC(=O)O", "note": "[AOAA, aminooxyacetic acid]", "values": [{"measurement": "concentrations at which antiproliferative effects and effects on cellular energetics manifest in cell-based assays", "setting": "HCT116 colon cancer cell", "result": "higher (millimolar) concentrations"}, {"measurement": "rate of HCT116 xenograft growth", "setting": "HCT116 tumor xenografts; 6 days/week", "result": "significantly slowed"}, {"measurement": "tumor size and weight at harvest", "setting": "HCT116 tumor xenografts; 6 days/week", "result": "reduced size and weight"}, {"measurement": "plasma concentration of H2S", "setting": "HCT116 tumor xenografts; tumor-bearing mice", "result": "reduction"}, {"measurement": "HCT116 cell migration", "setting": "HCT116 cells; 6 hours", "result": "markedly reduced"}, {"measurement": "HCT116 cell invasion", "setting": "HCT116 cells; matrigel, 24 hours", "result": "markedly reduced"}, {"measurement": "peritumor / skin microvessel blood flow", "setting": "[1]", "result": "significantly reduced; also recorded: marked decrease"}, {"measurement": "PDTX growth, second patient with stage II disease and mutant Kras allele", "setting": "[2]", "result": "growth inhibitory effects"}, {"measurement": "rate of PDTX growth, patient with stage III disease and Kras mutation", "setting": "[2]", "result": "reduced rate"}]}]}
